From article PMC9171197, “The Impact of Chromate on Pseudomonas aeruginosa Molybdenum Homeostasis” (Frontiers in Microbiology, 2022)
Like-named read-outs stand apart in the source and are kept apart here.

Target: T1, P. aeruginosa PAO1 ModA (Pseudomonas aeruginosa, UniProt Q9I2N2)
T1 construct: N-terminal His6 tag (pMCSG7) cleaved by TEV protease; E. coli BL21-Gold (DE3); metal-free
Assay: isothermal titration calorimetry
Format: binding
From the text: isothermal titration calorimetry on P. aeruginosa PAO1 ModA

T1 sequence (Q9I2N2 23-251): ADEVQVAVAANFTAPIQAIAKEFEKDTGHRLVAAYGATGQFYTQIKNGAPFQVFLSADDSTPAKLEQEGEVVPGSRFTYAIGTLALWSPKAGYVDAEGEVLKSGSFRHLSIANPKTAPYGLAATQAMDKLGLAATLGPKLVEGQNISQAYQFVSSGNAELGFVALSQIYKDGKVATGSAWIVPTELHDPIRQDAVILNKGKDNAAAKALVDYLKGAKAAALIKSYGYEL

[O]=[Cr](=[O])([OH])[OH] [CrO, chromate]
Kd (read-out: CrO-ModA): 927 ± 87.7 nM

[O]=[Mo](=[O])([OH])[OH] [MoO, molybdate]
Kd (read-out: MoO-ModA): 1 ± 1.3 nM

[O]=[W](=[O])([OH])[OH] [WO, tungstate]
Kd (read-out: WO-ModA): 1.2 ± 2 nM
